Patent US20240409585A1, “MACROCYCLIC IMMUNOMODULATORS” (priority 2021, published 2024)
Bridge positions count the residues as written; N and C are the ends. Square brackets hold non-standard residues; d marks the D form. Peptide text beside a SMILES is read from it. * marks the point of attachment. Bip = N[C@@H](Cc1ccc(-c2ccccc2)cc1)C(=O)O; Phe(3-OMe) = COc1cccc(C[C@H](N)C(=O)O)c1; Phe(3-Me) = Cc1cccc(C[C@H](N)C(=O)O)c1; Cha = N[C@@H](CC1CCCCC1)C(=O)O; Cit = NC(=O)NCCC[C@H](N)C(=O)O; Carboxymethyl = O=C(O)C*; NMeA = CN[C@@H](C)C(=O)O; Nle = CCCC[C@H](N)C(=O)O; Dab = NCC[C@H](N)C(=O)O; Dap = NC[C@H](N)C(=O)O

Target: T1, PE-labeled human PD-L1-Ig binding to Jurkat cell line over-expressing human PD-1 (Jurkat-PD-1) (Homo sapiens, UniProt Q15116)
T1 construct: expressed in transfected cells; host or cells: Jurkat
T1 sequence (Q15116 25-288): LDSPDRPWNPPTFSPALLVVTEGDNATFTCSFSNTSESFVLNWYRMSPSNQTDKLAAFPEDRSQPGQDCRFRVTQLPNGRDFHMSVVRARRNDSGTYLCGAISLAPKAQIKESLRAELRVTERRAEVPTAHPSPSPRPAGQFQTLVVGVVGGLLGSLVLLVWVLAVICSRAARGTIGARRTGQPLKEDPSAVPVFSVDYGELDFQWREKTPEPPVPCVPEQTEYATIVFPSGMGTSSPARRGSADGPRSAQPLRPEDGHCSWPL
Assay: Jurkat-PD-1 Cell Binding High-Content Screening Assay (CBA): Method 1
Conditions: Jurkat-hPD-1 cells, PE-labeled PD-L1-Ig 20 nM final; read-out: Jurkat HPDL1 PD1 IC50 (uM) (Method 1)

Structure (SMILES)	IC50 [µM]
CCCC[C@@H]1NC(=O)[C@H](CCCNC(=N)N)NC(=O)[C@@H](CC(C)C)NC(=O)[C@H](C)N(C)C(=O)[C@H]([C@@H](C)CC)NC(=O)[C@H](Cc2ccc(-c3ccccc3)cc2)NC(=O)[C@H](C(C)C)NC(=O)[C@H](Cc2c[nH]c3ccccc23)NC(=O)[C@H](CC(=O)O)NC(=O)[C@H](Cc2ccc(O)cc2)NC(=O)[C@H](Cc2ccccc2)NC(=O)CSC[C@@H](C(=O)N[C@@H](C)C(N)=O)NC(=O)[C@H]([C@@H](C)O)NC(=O)[C@H](C(C)C)NC1=O [Compound 1499] ({CH2CO}-FYDWV[Bip]I[NMeA][dL]R[Nle]VTCA-NH2; thioether N-14)	0.14
CCCC[C@@H]1NC(=O)[C@H](CCCNC(=N)N)NC(=O)[C@@H](CC(C)C)NC(=O)[C@H](C)N(C)C(=O)[C@H](C(C)C)NC(=O)[C@H](Cc2ccc(-c3ccccc3)cc2)NC(=O)[C@H](C(C)C)NC(=O)[C@H](Cc2c[nH]c3ccccc23)NC(=O)[C@H](CC(=O)O)NC(=O)[C@H](Cc2ccc(O)cc2)NC(=O)[C@H](CN)NC(=O)CSC[C@@H](C(=O)N[C@@H](C)C(N)=O)NC(=O)[C@H]([C@@H](C)O)NC(=O)[C@H](C(C)C)NC1=O [Compound 1500] ({CH2CO}-[Dap]YDWV[Bip]V[NMeA][dL]R[Nle]VTCA-NH2; thioether N-14)	0.08
CCCC[C@@H]1NC(=O)[C@H](CCCNC(=N)N)NC(=O)[C@@H](CC(C)C)NC(=O)[C@H](C)N(C)C(=O)[C@H](C(C)C)NC(=O)[C@H](Cc2ccc(-c3ccccc3)cc2)NC(=O)[C@H](C(C)C)NC(=O)[C@H](Cc2c[nH]c3ccccc23)NC(=O)[C@H](CC(=O)O)NC(=O)[C@H](Cc2ccc(O)cc2)NC(=O)[C@H](Cc2ccc(OCC(=O)O)cc2)NC(=O)CSC[C@@H](C(=O)N[C@@H](C)C(N)=O)NC(=O)[C@H]([C@@H](C)O)NC(=O)[C@H](C(C)C)NC1=O [Compound 1501] ({CH2CO}-Y(Carboxymethyl)YDWV[Bip]V[NMeA][dL]R[Nle]VTCA-NH2; thioether N-14)	0.08
CCCC[C@@H]1NC(=O)[C@H](CCCNC(=N)N)NC(=O)[C@@H](CC(C)C)NC(=O)[C@H](C)N(C)C(=O)[C@H](C(C)C)NC(=O)[C@H](Cc2ccc(-c3ccccc3)cc2)NC(=O)[C@H](C(C)C)NC(=O)[C@H](Cc2c[nH]c3ccccc23)NC(=O)[C@H](CC(=O)O)NC(=O)[C@H](Cc2ccc(O)cc2)NC(=O)[C@H](Cc2ccccc2)NC(=O)CSC[C@@H](C(=O)N[C@@H](C)C(N)=O)NC(=O)[C@H]([C@@H](C)O)NC(=O)[C@H](C(C)C)NC1=O [Compound 1502] ({CH2CO}-FYDWV[Bip]V[NMeA][dL]R[Nle]VTCA-NH2; thioether N-14)	0.1
CC(C)C[C@H]1NC(=O)[C@H](C)N(C)C(=O)[C@H](CCCNC(N)=O)NC(=O)[C@H](Cc2ccc(-c3ccccc3)cc2)NC(=O)[C@H](C(C)C)NC(=O)[C@H](Cc2c[nH]c3ccccc23)NC(=O)[C@H](CC(=O)O)NC(=O)[C@H](Cc2ccc(O)cc2)NC(=O)[C@H](CN)NC(=O)CSC[C@@H](C(=O)N[C@@H](C)C(N)=O)NC(=O)[C@H]([C@@H](C)O)NC(=O)[C@H](C(C)C)NC(=O)[C@H](CC2CCCCC2)NC(=O)[C@H](CCCNC(=N)N)NC1=O [Compound 1503] ({CH2CO}-[Dap]YDWV[Bip][Cit][NMeA][dL]R[Cha]VTCA-NH2; thioether N-14)	0.01
CC(C)C[C@H]1NC(=O)[C@H](C)N(C)C(=O)[C@H](CCCNC(N)=O)NC(=O)[C@H](Cc2ccc(-c3ccccc3)cc2)NC(=O)[C@H](C(C)C)NC(=O)[C@H](Cc2c[nH]c3ccccc23)NC(=O)[C@H](CC(=O)O)NC(=O)[C@H](Cc2ccc(O)cc2)NC(=O)[C@H](Cc2ccc(OCC(=O)O)cc2)NC(=O)CSC[C@@H](C(=O)N[C@@H](C)C(N)=O)NC(=O)[C@H]([C@@H](C)O)NC(=O)[C@H](C(C)C)NC(=O)[C@H](CC2CCCCC2)NC(=O)[C@H](CCCNC(=N)N)NC1=O [Compound 1504] ({CH2CO}-Y(Carboxymethyl)YDWV[Bip][Cit][NMeA][dL]R[Cha]VTCA-NH2; thioether N-14)	0.02
CC(C)C[C@H]1NC(=O)[C@H](C)N(C)C(=O)[C@H](CCCNC(N)=O)NC(=O)[C@H](Cc2ccc(-c3ccccc3)cc2)NC(=O)[C@H](C(C)C)NC(=O)[C@H](Cc2c[nH]c3ccccc23)NC(=O)[C@H](CC(=O)O)NC(=O)[C@H](Cc2ccc(O)cc2)NC(=O)[C@H](Cc2ccccc2)NC(=O)CSC[C@@H](C(=O)N[C@@H](C)C(N)=O)NC(=O)[C@H]([C@@H](C)O)NC(=O)[C@H](C(C)C)NC(=O)[C@H](CC2CCCCC2)NC(=O)[C@H](CCCNC(=N)N)NC1=O [Compound 1505] ({CH2CO}-FYDWV[Bip][Cit][NMeA][dL]R[Cha]VTCA-NH2; thioether N-14)	0.02
CC(C)C[C@H]1NC(=O)[C@H](C)N(C)C(=O)[C@H](C(C)C)NC(=O)[C@H](Cc2ccc(-c3ccccc3)cc2)NC(=O)[C@H](C(C)C)NC(=O)[C@H](Cc2c[nH]c3ccccc23)NC(=O)[C@H](CC(=O)O)NC(=O)[C@H](Cc2ccc(O)cc2)NC(=O)[C@H](CN)NC(=O)CSC[C@@H](C(=O)N[C@@H](C)C(N)=O)NC(=O)[C@H]([C@@H](C)O)NC(=O)[C@H](C(C)C)NC(=O)[C@H](CC2CCCCC2)NC(=O)[C@H](CCN)NC1=O [Compound 1506] ({CH2CO}-[Dap]YDWV[Bip]V[NMeA][dL][Dab][Cha]VTCA-NH2; thioether N-14)	0.02
CC(C)C[C@H]1NC(=O)[C@H](C)N(C)C(=O)[C@H](C(C)C)NC(=O)[C@H](Cc2ccc(-c3ccccc3)cc2)NC(=O)[C@H](C(C)C)NC(=O)[C@H](Cc2c[nH]c3ccccc23)NC(=O)[C@H](CC(=O)O)NC(=O)[C@H](Cc2ccc(O)cc2)NC(=O)[C@H](Cc2ccc(OCC(=O)O)cc2)NC(=O)CSC[C@@H](C(=O)N[C@@H](C)C(N)=O)NC(=O)[C@H]([C@@H](C)O)NC(=O)[C@H](C(C)C)NC(=O)[C@H](CC2CCCCC2)NC(=O)[C@H](CCN)NC1=O [Compound 1507] ({CH2CO}-Y(Carboxymethyl)YDWV[Bip]V[NMeA][dL][Dab][Cha]VTCA-NH2; thioether N-14)	0.01

The remaining lines, values ahead:

IC50 [µM]	Structure (SMILES)
0.02	CC(C)C[C@@H]1NC(=O)[C@H](Cc2c[nH]c3ccccc23)NC(=O)[C@H](CC(=O)O)NC(=O)[C@H](Cc2ccc(O)cc2)NC(=O)[C@H](Cc2ccccc2)NC(=O)CSC[C@@H](C(=O)NCC(N)=O)NC(=O)[C@H](CO)NC(=O)[C@H](C(C)C)NC(=O)[C@H](CC(C)C)NC(=O)[C@H](CC(N)=O)NC(=O)[C@@H](CC(C)C)NC(=O)[C@H](C)N(C)C(=O)[C@H](CCCNC(N)=O)NC(=O)[C@H](Cc2ccc(-c3ccccc3)cc2)NC1=O [Compound 1509] ({CH2CO}-FYDWL[Bip][Cit][NMeA][dL]NLVSCG-NH2; thioether N-14)
0.06	CC(C)C[C@@H]1NC(=O)[C@H](Cc2c[nH]c3ccccc23)NC(=O)[C@H](CC(=O)O)NC(=O)[C@H](Cc2ccc(O)cc2)NC(=O)[C@H](Cc2ccccc2)NC(=O)CSC[C@@H](C(=O)NCC(N)=O)NC(=O)[C@H](CO)NC(=O)[C@H](C(C)C)NC(=O)[C@H](CC(C)C)NC(=O)[C@H](CC(N)=O)NC(=O)[C@@H](CC(C)C)NC(=O)[C@H](C)N(C)C(=O)[C@H](CCC(=O)O)NC(=O)[C@H](Cc2ccc(-c3ccccc3)cc2)NC1=O [Compound 1510] ({CH2CO}-FYDWL[Bip]E[NMeA][dL]NLVSCG-NH2; thioether N-14)
0.01	CC[C@H](C)[C@@H]1NC(=O)[C@H](Cc2ccc(-c3ccccc3)cc2)NC(=O)[C@H](CC(C)C)NC(=O)[C@H](Cc2c[nH]c3ccccc23)NC(=O)[C@H](CC(=O)O)NC(=O)[C@H](Cc2ccc(O)cc2)NC(=O)[C@H](Cc2ccccc2)NC(=O)CSC[C@@H](C(=O)NCC(N)=O)NC(=O)[C@H](CO)NC(=O)[C@H](C(C)C)NC(=O)[C@H](CC(C)C)NC(=O)[C@H](CCN)NC(=O)[C@@H](CC(C)C)NC(=O)[C@H](C)N(C)C1=O [Compound 1511] ({CH2CO}-FYDWL[Bip]I[NMeA][dL][Dab]LVSCG-NH2; thioether N-14)
0.02	CC(C)C[C@@H]1NC(=O)[C@H](Cc2c[nH]c3ccccc23)NC(=O)[C@H](CC(=O)O)NC(=O)[C@H](Cc2ccc(O)cc2)NC(=O)[C@H](Cc2ccccc2)NC(=O)CSC[C@@H](C(=O)NCC(N)=O)NC(=O)[C@H](CO)NC(=O)[C@H](C(C)C)NC(=O)[C@H](CC(C)C)NC(=O)[C@H](CCN)NC(=O)[C@@H](CC(C)C)NC(=O)[C@H](C)N(C)C(=O)[C@H](CCCNC(N)=O)NC(=O)[C@H](Cc2ccc(-c3ccccc3)cc2)NC1=O [Compound 1512] ({CH2CO}-FYDWL[Bip][Cit][NMeA][dL][Dab]LVSCG-NH2; thioether N-14)
0.02	CC(C)C[C@@H]1NC(=O)[C@H](Cc2c[nH]c3ccccc23)NC(=O)[C@H](CC(=O)O)NC(=O)[C@H](Cc2ccc(O)cc2)NC(=O)[C@H](Cc2ccccc2)NC(=O)CSC[C@@H](C(=O)NCC(N)=O)NC(=O)[C@H](CO)NC(=O)[C@H](C(C)C)NC(=O)[C@H](CC(C)C)NC(=O)[C@H](CCN)NC(=O)[C@@H](CC(C)C)NC(=O)[C@H](C)N(C)C(=O)[C@H](CCC(=O)O)NC(=O)[C@H](Cc2ccc(-c3ccccc3)cc2)NC1=O [Compound 1513] ({CH2CO}-FYDWL[Bip]E[NMeA][dL][Dab]LVSCG-NH2; thioether N-14)
0.02	COc1cccc(C[C@@H]2NC(=O)[C@H](CC(=O)O)NC(=O)[C@H](Cc3ccc(O)cc3)NC(=O)[C@H](Cc3ccccc3)NC(=O)CSC[C@@H](C(=O)NCC(N)=O)NC(=O)[C@H](CO)NC(=O)[C@H](C(C)C)NC(=O)[C@H](CC(C)C)NC(=O)[C@H](CC(N)=O)NC(=O)[C@@H](CC(C)C)NC(=O)[C@H](C)N(C)C(=O)[C@H](C(C)C)NC(=O)[C@H](Cc3ccc(-c4ccccc4)cc3)NC(=O)[C@H](CC(C)C)NC2=O)c1 [Compound 1516] ({CH2CO}-FYD[Phe(3-OMe)]L[Bip]V[NMeA][dL]NLVSCG-NH2; thioether N-14)
0.02	Cc1cccc(C[C@@H]2NC(=O)[C@H](CC(=O)O)NC(=O)[C@H](Cc3ccc(O)cc3)NC(=O)[C@H](Cc3ccccc3)NC(=O)CSC[C@@H](C(=O)NCC(N)=O)NC(=O)[C@H](CO)NC(=O)[C@H](C(C)C)NC(=O)[C@H](CC(C)C)NC(=O)[C@H](CC(N)=O)NC(=O)[C@@H](CC(C)C)NC(=O)[C@H](C)N(C)C(=O)[C@H](C(C)C)NC(=O)[C@H](Cc3ccc(-c4ccccc4)cc3)NC(=O)[C@H](CC(C)C)NC2=O)c1 [Compound 1517] ({CH2CO}-FYD[Phe(3-Me)]L[Bip]V[NMeA][dL]NLVSCG-NH2; thioether N-14)
